Source: publication PMC10468942, “A Fluorescent Probe as a Lead Compound for a Selective α-Synuclein PET Tracer: Development of a Library of 2-Styrylbenzothiazoles and Biological Evaluation of [^18F]PFSB and [^18F]MFSB” (ACS Omega, 2023)
Several values for one entry are separate records, joined by “and”; a condition that tells them apart may be missing. Equal values may be shown once.

Experiments:
[1] = target: T1, αSYN fibrils (Homo sapiens, UniProt P37840); test: [^3H]PiB competition binding assay on αSYN fibrils
T1 construct: cloning of the DNA construct encoding full-length αSYN into the pET-22b vector; made in house; host or cells: Escherichia coli BL21
Protocol: Following the cloning of the DNA construct encoding full-length αSYN into the pET-22b vector and its transformation into BL21 cells, the expression of human αSYN from a prokaryotic host was induced overnight in Escherichia coli at 20 °C with 0.5 mM IPTG. The cells were harvested by centrifugation, resuspended in 20 mM Tris-HCl pH 7.6, 25 mM NaCl and 1× complete protease inhibitor (Roche, Basel, Switzerland), and lysed by sonication. […] Anion exchange chromatography (HiTrap Q, GE Healthcare, Chicago, Illinois) was used to trap the produced αSYN, which was eluted with NaCl 0.1 M over 20 column volumes. Fractions containing αSYN were concentrated and further purified through a Superdex 75 SEC column equilibrated with PBS. […] A 4 mg/mL solution of αSYN in 20 mM K3PO4 pH 9.1 was placed in an orbital shaker at 37 °C, 1000 rpm for 5 days to prepare P91s. The assemblies were either sonicated with cycles of 20 s on and 10 s off at 50% amplitude (Q800R3, Qsonica) for a total of 10 min or directly aliquoted in volumes of 10 μL each stored at −80 °C until use. […] The final products were aliquoted, frozen on dry ice, and stored at −80 °C until use.
(§1) Concentrations of αSYN and Aβ1-42 fibrils were as described above.
(§2) Plates were incubated on a shaker (MaxQ 6000, Thermo Fisher Scientific, Inc., Marietta, OH) at 50 rpm for 2 h at 37 °C, covered by removable sealing tapes (PerkinElmer, Waltham, MA). Vacuum filtration and read-out were performed as previously reported.[17] […] Data points were fitted using nonlinear regression analysis in GraphPad Prism (GraphPad Software, Inc., Version 8.4.0, La Jolla).

[2] = target: T2, Aβ1-42 fibrils (Homo sapiens, UniProt P05067); test: [^3H]PiB competition binding assay on Aβ fibrils; conditions: for competition with [^3H]PiB / binding to Aβ fibrils (in words): Aβ1–42 fibrils
T2 construct: Synthetic lyophilized human Aβ1-42 peptide; purchased EMC Microcollections, Tuebingen, Germany; host or cells: synthetic peptide
Protocol: Following the cloning of the DNA construct encoding full-length αSYN into the pET-22b vector and its transformation into BL21 cells, the expression of human αSYN from a prokaryotic host was induced overnight in Escherichia coli at 20 °C with 0.5 mM IPTG. The cells were harvested by centrifugation, resuspended in 20 mM Tris-HCl pH 7.6, 25 mM NaCl and 1× complete protease inhibitor (Roche, Basel, Switzerland), and lysed by sonication. […] Anion exchange chromatography (HiTrap Q, GE Healthcare, Chicago, Illinois) was used to trap the produced αSYN, which was eluted with NaCl 0.1 M over 20 column volumes. Fractions containing αSYN were concentrated and further purified through a Superdex 75 SEC column equilibrated with PBS. […] A 4 mg/mL solution of αSYN in 20 mM K3PO4 pH 9.1 was placed in an orbital shaker at 37 °C, 1000 rpm for 5 days to prepare P91s. The assemblies were either sonicated with cycles of 20 s on and 10 s off at 50% amplitude (Q800R3, Qsonica) for a total of 10 min or directly aliquoted in volumes of 10 μL each stored at −80 °C until use. The method for Aβ1-42 fibrils generation was adapted from Bagchi et al. and described in Kuebler et al.[17],[27] […] Aggregation was induced by incubation in an Eppendorf Thermomixer at 37 °C with shaking at 800 rpm for 72 h. The resulting fibrils were sonicated for 3 min in a water bath (Elmasonic S 60 H, Elma Schmidbauer GmbH, Singen, Germany). The final products were aliquoted, frozen on dry ice, and stored at −80 °C until use.
as §1, §2

[3] = test system: αSYN pathology in human brain slices (MSA, PD, AD, control); test: In vitro autoradiography on human brain slices; format: binding; conditions: 10 nM tracer
Protocol: Post-mortem human brain slices (10 μm thickness) were obtained from the subject cases and were analyzed by the Neurobiobank München (NBM, Munich, Germany), where tissues were collected on the basis of written informed consent according to the guidelines of the ethics committee of the Ludwig Maximilians University of Munich, Germany (# 345-13). The use of brain tissue samples in this study was approved by the ethics committee of the Faculty of Medicine at the University of Tuebingen (Ethics approval number: 813/2018BO2). Table S4 (Supporting Information) summarizes the information of the subjects from which samples were obtained and used in the experiment.
For autoradiography, frozen brain slices were thawed for 1 h before preincubation in bovine serum albumin (BSA) buffer for 25 min at room temperature. To determine total binding (TB), brain slices were incubated with the tracer (10 nM [^18F]PFSB, 10 nM [^18F]MFSB). Incubation of consecutive slices with the corresponding nonradioactive compounds (10 μM PFSB, 10 μM MFSB) was performed to determine nonspecific binding (NSB). The nonradioactive compounds were prepared by dissolving in DMSO to 10 mM, which yielded a DMSO concentration of ≤0.1% in the final solution. Incubation was carried out for 1 hour at room temperature with subsequent washing in cold BSA buffer (3 × 10 min) followed by three dippings in cold deionized water. After drying under an IR lamp, brain slices were exposed to a storage phosphor screen (Molecular Dynamics, Caesarea, Israel) for 18 h, which was then scanned in a phosphor imager (STORM 840, Molecular Dynamics, Sunnyvale, CA).
Quantitative data analysis was performed by drawing four regions of interest (ROIs) in relevant areas of the slice and one ROI next to it for background subtraction (Figures S7 and S8; ImageJ 1.8.0_172, National Institute of Health, Bethesda, MD).[28] Specific binding (SB) is obtained by subtracting NSB from TB. The SB disease/SB control ratio was calculated by dividing by the SB in diseased tissues with the respective SB in control tissues.

[4] = target: T1, αSYN fibrils; test: [^3H]MODAG-001 competition binding assay on αSYN fibrils; conditions: for Ki: n = 2, single determinations
Protocol: Following the cloning of the DNA construct encoding full-length αSYN into the pET-22b vector and its transformation into BL21 cells, the expression of human αSYN from a prokaryotic host was induced overnight in Escherichia coli at 20 °C with 0.5 mM IPTG. The cells were harvested by centrifugation, resuspended in 20 mM Tris-HCl pH 7.6, 25 mM NaCl and 1× complete protease inhibitor (Roche, Basel, Switzerland), and lysed by sonication. Additionally, they were boiled for 15 min and centrifuged at 12 000g for 30 min. Anion exchange chromatography (HiTrap Q, GE Healthcare, Chicago, Illinois) was used to trap the produced αSYN, which was eluted with NaCl 0.1 M over 20 column volumes. Fractions containing αSYN were concentrated and further purified through a Superdex 75 SEC column equilibrated with PBS. Additional purification was conducted via a high-capacity endotoxin removal spin column (Pierce, Waltham, Massachusetts), affording an endotoxin level below 1.0 EU/mg. The monomeric state and monodispersity of pure αSYN were confirmed by dynamic light scattering and fibrillation was performed according to the protocol from Makky et al.[26] A 4 mg/mL solution of αSYN in 20 mM K3PO4 pH 9.1 was placed in an orbital shaker at 37 °C, 1000 rpm for 5 days to prepare P91s. The assemblies were either sonicated with cycles of 20 s on and 10 s off at 50% amplitude (Q800R3, Qsonica) for a total of 10 min or directly aliquoted in volumes of 10 μL each stored at −80 °C until use. The method for Aβ1-42 fibrils generation was adapted from Bagchi et al. and described in Kuebler et al.[17],[27] […]
Plates were incubated on a shaker (MaxQ 6000, Thermo Fisher Scientific, Inc., Marietta, OH) at 50 rpm for 2 h at 37 °C, covered by removable sealing tapes (PerkinElmer, Waltham, MA). Vacuum filtration and read-out were performed as previously reported.[17] […]

[5] = nonmethylated compounds, Table 1, two values in a cell = single determinations, a: mean Ki ± SEM of three data points, b: single data point, read-out: Ki
[6] = Ki, αSYN [^3H]PiB competition, mean Ki ± SEM, n = 3, or single determinations

T2 sequence (P05067 672-713 limits assumed): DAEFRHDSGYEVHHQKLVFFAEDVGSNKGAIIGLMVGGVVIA

What does the source list for `C(=Cc1nc2ccccc2s1)c1ccc(N2CCCC2)cc1` [17a, 2-(4-(Pyrrolidin-1-yl)styryl)benzo[d]thiazole]?
Ki [1, 5]: 73.4 ± 19 nM; competition with [^3H]PiB / binding to Aβ fibrils (in words) [2]: None of the tested compounds appreciably competed against [^3H]PiB

`Fc1ccc2nc(C=CC=Cc3ccc(N4CCCCC4)cc3)sc2c1` [compound 43, 6-Fluoro-2-(4-(4-(piperidin-1-yl)phenyl)buta-1,3-dien-1-yl)benzo[d]thiazole] was tested. Which Ki [1, 6] did it give?
Its Ki is 213 ± 122 nM.

And the “fold reduction of affinity compared to 14a” value ([1]; [^3H]PiB competition)?
Its value is ~3 fold.

What about the “competition with [^3H]PiB / binding to Aβ fibrils (in words)” value (shortened to “competition with [^3H]PiB / binding”) [2] of the same molecule?
Its value is “remained low”.

How did the Ki [1, 5] turn out when `C(C=Cc1nc2ccccc2s1)=Cc1ccc(N2CCCCC2)cc1` [14a, 2-(4-(4-(Piperidin-1-yl)phenyl)buta-1,3-dien-1-yl)benzo[d]thiazole] was run?
The Ki was 81.9 ± 15.6 nM.

What about the “competition with [^3H]PiB / binding” value [2] of the same molecule?
The value was “None of the tested compounds appreciably competed against [^3H]PiB”.

With `[18F]c1ccc2nc(/C=C/c3ccc(N4CCCCC4)cc3)sc2c1` [[^18F]PFSB] as the molecule, how does the “AD/frontal cortex SB ratio” value ([3]; AD sample vs frontal cortex control) read?
Its value is 1.06.

And the “specific binding signal intensity ratio MSA / control of the same brain area” value ([3]; MSA patient slices vs control, n = 1)?
The value was 3.7 and 4.2.

Which Ki [1, 6] does the source give for `Fc1ccc2nc(C=Cc3ccc(N4CCOCC4)cc3)sc2c1` [compound 45, 4-(4-(2-(6-Fluorobenzo[d]thiazol-2-yl)vinyl)phenyl)morpholine] here?
Its Ki is 10.3 ± 4.7 nM.

What about the “factor of affinity improvement compared to PFSB” value ([1]; [^3H]PiB competition, Ki-MFSB vs Ki-PFSB) of the same molecule?
The value was 2.5.

And the “fold lower Ki than PFSB” value ([4]; [^3H]MODAG-001 competition)?
The value was 4.6 fold.

And the Ki [4]?
Its Ki is 20.3 nM and 41.2 nM.

What about the “αSYN/Aβ selectivity (in words)” value ([2]; [^3H]PiB competition on αSYN and Aβ fibrils) of the same molecule?
The value was “remained unchanged”.

With `C(=Cc1nc2ccccc2s1)c1ccc(N2CCOCC2)cc1` [15a, 4-(4-(2-(Benzo[d]thiazol-2-yl)vinyl)phenyl)morpholine] as the molecule, how does the Ki [1, 5] read?
The Ki was 92 ± 30.3 nM.

And the “competition with [^3H]PiB / binding” value [2]?
The value was “None of the tested compounds appreciably competed against [^3H]PiB”.

With `Fc1ccc2nc(C=CC=Cc3ccc(N4CCCC4)cc3)sc2c1` [compound 44, 6-Fluoro-2-(4-(4-(pyrrolidin-1-yl)phenyl)buta-1,3-dien-1-yl)benzo[d]thiazole] as the molecule, how does the Ki [1, 6] read?
The Ki was 85 ± 41 nM.

What about the “competition with [^3H]PiB / binding” value [2] of the same molecule?
The value was “remained low”.

How did the Ki [1, 5] turn out when `Fc1ccc2nc(C=Cc3ccc(N4CCCCC4)cc3)sc2c1` [9a, 6-Fluoro-2-(4-(piperidin-1-yl)styryl)benzo[d]thiazole] was run?
The Ki was 25.4 ± 2.3 nM.

What about the Ki [4] of the same molecule?
The Ki was 125 nM and 159 nM.

What about the “competition with [^3H]PiB / binding” value [2] of the same molecule?
Its value is “None of the tested compounds appreciably competed against [^3H]PiB”.
